The results in this text go back to patent USRE47689E1, “Compounds for treating spinal muscular atrophy” (PTC Therapeutics, Inc., priority 2011, dated 2019).

Where two headings read alike, the source gives them in different places.

In data set [1] the test system is Smn protein. In words: Smn protein assay in cultured cells (SMN HTRF). Particulars: 48 hours; for EC1.5x (concentration giving 1.5-fold Smn protein increase): SMA Type 1 patient fibroblast cells (GM03813), 7-point concentration curve, SMN HTRF, concentration producing 1.5 times Smn protein vs DMSO vehicle control, read-out: EC1.5x for Smn protein expression; for maximum fold (Fold) increase of Smn protein: SMA patient fibroblast cells, 7-point concentration data, fold increase relative to vehicle control (SMN HTRF). The data set is classed as cell-based, human. The method, boiled down:
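Lysates in RIPA with protease inhibitors are incubated overnight at room temperature with HTRF anti-SMN antibodies. EC1.5x is derived from fold increase in ΔF over vehicle.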
For orientation: In TR-FRET formats the signal depends on donor and acceptor labels being close together.

The test system of data set [2] is SMN2 minigene (full length SMN2 minigene mRNA containing SMN2 exon 7). In words: SMN2 minigene mRNA splicing RT-qPCR assay in cultured cells. Type of data set: cell-based, human. Particulars: Homo sapiens, HEK293-H, read-out: EC1.5x for production of full length SMN2 mRNA. The method, boiled down:
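Read-out: full-length (exon 7-included) SMN2 minigene mRNA by multiplex RT-qPCR with GAPDH, efficiency-corrected (1+E)^−Ct, GAPDH-normalized and divided by vehicle. Stably transfected HEK293H cells, 24 h compound exposure, duplicates per concentration. Value is EC1.5x, reported as star ranges.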
In general terms: Real-time PCR tracks product formation cycle by cycle.

Setting [3] is: HEK293H cells stably transfected with SMN2-A minigene, 24 hours, 7-point concentration curve, 1.5-fold relative to vehicle-treated cells.

The compound `Cc1cn2cc(-c3cc4ccc(N5CC[C@H](N(C)C)C5)cc4oc3=O)nc2c(C)n1` [Compound 691, 7-[(3S)-3-(dimethylamino)pyrrolidin-1-yl]-3-(6,8-dimethylimidazo[1,2-a]pyrazin-2-yl)-2H-chromen-2-one] displayed a melting point of 244 to 246 °C. For the same compound, in data set [1], the EC1.5x (concentration giving 1.5-fold Smn protein increase) was < 300 nM; the “maximum fold (Fold) increase of Smn protein” value (“maximum fold (Fold) increase” below) is “**** (fold increase between >1.5 and ≤1.65)”. In data set [2] (setting [3]), the EC (1.5-fold) was < 0.1 µM.

For the compound `Cc1nccn2cc(-c3cc4ccc(N5C[C@@H](C)N[C@@H](C)C5)cc4oc3=O)nc12` [Compound 552, 7-[(3R,5S)-3,5-dimethylpiperazin-1-yl]-3-(8-methylimidazo[1,2-a]pyrazin-2-yl)-2H-chromen-2-one], the melting point was 250 to 258 °C. Also, in data set [1], the EC1.5x (concentration giving 1.5-fold Smn protein increase) is < 300 nM; the “maximum fold (Fold) increase” value was “**** (fold increase between >1.5 and ≤1.65)”. In addition, the EC (1.5-fold) in data set [2] (setting [3]) is < 0.1 µM.

In the case of `O=c1oc2cc(N3CCNCC3)ccc2cc1-c1ccncc1F` [Compound 126, 3-(3-fluoropyridin-4-yl)-7-(piperazin-1-yl)-2H-chromen-2-one], the melting point fell in the range of 202 to 204 °C. The “maximum fold (Fold) increase” value in data set [1] is recorded as “* (maximum fold increase of ≤1.2)”. Further, the EC (1.5-fold) in data set [2] (24 h) lay in the range of 3 to 30 µM.

For `C[C@@H]1CN(c2ccc3cc(-c4cn5cc(F)cnc5n4)c(=O)oc3c2)CCN1` [Compound 481, 3-(6-fluoroimidazo[1,2-a]pyrimidin-2-yl)-7-[(3R)-3-methylpiperazin-1-yl]-2H-chromen-2-one], the melting point lay in the range of 232 to 236 °C. In data set [1], the “maximum fold (Fold) increase” value is given as “* (maximum fold increase of ≤1.2)”. Besides, the EC (1.5-fold) in data set [2] (setting [3]) was in the range of 1 to 3 µM.

Consider `O=c1oc2cc(N3CCNCC3)ccc2cc1-c1ccsc1` [Compound 319, 7-(piperazin-1-yl)-3-(thiophen-3-yl)-2H-chromen-2-one], for which the melting point lay within 175 to 177 °C. Besides, in data set [1], the “maximum fold (Fold) increase” value is “** (fold increase between >1.2 and ≤1.35)”. Moreover, the EC (1.5-fold) in data set [2] (24 h) is 1 to 3 µM.

`Cc1cn2cc(-c3cc4ccc(N(C)[C@@H]5CCNC5)cc4oc3=O)nc2c(C)n1` [Compound 700, 3-(6,8-dimethylimidazo[1,2-a]pyrazin-2-yl)-7-{methyl[(3R)-pyrrolidin-3-yl]amino}-2H-chromen-2-one]: the melting point was in the range of 192 to 202 °C. Also, in data set [1], the EC1.5x (concentration giving 1.5-fold Smn protein increase) is < 300 nM and the “maximum fold (Fold) increase” value is “***** (fold increase >1.65)”. In data set [2] (setting [3]), the EC (1.5-fold) fell in the range of 0.1 to 0.3 µM.

As to `CCN1CCN(c2ccc3cc(-c4cc5cnc(C)cn5c4)c(=O)oc3c2)CC1` [Compound 640, 7-(4-ethylpiperazin-1-yl)-3-(3-methylpyrrolo[1,2-a]pyrazin-7-yl)-2H-chromen-2-one], the melting point lay in the range of 208 to 210 °C. For the same compound, in data set [1], the EC1.5x (concentration giving 1.5-fold Smn protein increase) was < 300 nM; the “maximum fold (Fold) increase” value was “**** (fold increase between >1.5 and ≤1.65)”. In addition, the EC (1.5-fold) in data set [2] (setting [3]) was < 0.1 µM.

With `Cc1cn2cc(-c3cc4ccc(NC5CNC5)cc4oc3=O)nc2c(C)n1` [Compound 619, 7-(azetidin-3-ylamino)-3-(6,8-dimethylimidazo[1,2-a]pyrazin-2-yl)-2H-chromen-2-one], the melting point was in the range of 250 to 256 °C. Further, in data set [1], the EC1.5x (concentration giving 1.5-fold Smn protein increase) was < 300 nM; the “maximum fold (Fold) increase” value was “**** (fold increase between >1.5 and ≤1.65)”. Moreover, the EC (1.5-fold) in data set [2] (setting [3]) is < 0.1 µM.

With `CN1CCN(c2ccc3cc(-c4cn5cc(C6CC6)cc(F)c5n4)c(=O)oc3c2)CC1` [Compound 504, 3-(6-cyclopropyl-8-fluoroimidazo[1,2-a]pyridin-2-yl)-7-(4-methylpiperazin-1-yl)-2H-chromen-2-one], the melting point is 277 to 287 °C. Moreover, the “maximum fold (Fold) increase” value in data set [1] was “* (maximum fold increase of ≤1.2)”. Besides, in data set [2] (setting [3]), the EC (1.5-fold) was in the range of 1 to 3 µM.

The compound `Cc1cn2cc(-c3cc4ccc(N5CCN[C@@H](C)C5)cc4oc3=O)nc2s1` [Compound 232, 3-(2-methylimidazo[2,1-b][1,3]thiazol-6-yl)-7-[(3S)-3-methylpiperazin-1-yl]-2H-chromen-2-one] had a melting point of 177 to 182 °C. For the same compound, in data set [1], the “maximum fold (Fold) increase” value was “* (maximum fold increase of ≤1.2)”. The EC (1.5-fold) in data set [2] (setting [3]) was 0.3 to 1 µM.

Take `O=c1oc2cc(N3CCNCC3)ccc2cc1-c1cccc(N2CCCC2)n1` [Cpd 386, 7-(piperazin-1-yl)-3-[6-(pyrrolidin-1-yl)pyridin-2-yl]-2H-chromen-2-one]: the melting point lay in the range of 190 to 192 °C. Further, the “maximum fold (Fold) increase” value in data set [1] is “* (maximum fold increase of ≤1.2)”. Besides, in data set [2] (setting [3]), the EC (1.5-fold) was in the range of 3 to 30 µM.

`Cc1cn2cc(-c3cc4ccc(CCN5CCNCC5)cc4oc3=O)nc2c(C)n1` [Compound 866, 3-(6,8-dimethylimidazo[1,2-a]pyrazin-2-yl)-7-[2-(piperazin-1-yl)ethyl]-2H-chromen-2-one] came in with a melting point of 186 to 188 °C. Moreover, in data set [1], the EC1.5x (concentration giving 1.5-fold Smn protein increase) fell in the range of 300 to 1000 nM; the “maximum fold (Fold) increase” value is “*** (fold increase between >1.35 and ≤1.5)”. In addition, the EC (1.5-fold) in data set [2] (setting [3]) was in the range of 0.1 to 0.3 µM.

`CN1CCCN(c2ccc3cc(-c4cn5cc(Cl)sc5n4)c(=O)oc3c2)CC1` [Compound 479, 3-(2-chloroimidazo[2,1-b][1,3]thiazol-6-yl)-7-(4-methyl-1,4-diazepan-1-yl)-2H-chromen-2-one] gave a melting point of 229 to 232 °C. In data set [1], the “maximum fold (Fold) increase” value is listed as “* (maximum fold increase of ≤1.2)”. Moreover, the EC (1.5-fold) in data set [2] (setting [3]) was 0.3 to 1 µM.

In the case of `Cc1ccn2cc(-c3cc4ccc(N5CC6CCC5CN6)cc4oc3=O)nc2c1` (centres unmarked) [Compound 597, 7-(2,5-diazabicyclo[2.2.2]oct-2-yl)-3-(7-methylimidazo[1,2-a]pyridin-2-yl)-2H-chromen-2-one], the melting point lay within 196 to 215 °C. Further, in data set [1], the EC1.5x (concentration giving 1.5-fold Smn protein increase) is < 300 nM; the “maximum fold (Fold) increase” value was “**** (fold increase between >1.5 and ≤1.65)”. Moreover, the EC (1.5-fold) in data set [2] (setting [3]) is < 0.1 µM.

The compound `Cc1ccc2nc(-c3cc4ccc(N5CC[C@H](NC(=O)OC(C)(C)C)C5)cc4oc3=O)cn2c1` [Compound 177, tert-butyl {(3S)-1-[3-(6-methylimidazo[1,2-a]pyridin-2-yl)-2-oxo-2H-chromen-7-yl]pyrrolidin-3-yl}carbamate] displayed a melting point of 225 to 230 °C. Moreover, the “maximum fold (Fold) increase” value in data set [1] is recorded as “* (maximum fold increase of ≤1.2)”. The EC (1.5-fold) in data set [2] (setting [3]) lay within 3 to 30 µM.

`Cc1cn2cc(-c3cc4ccc(N5CCN(C)CC5)cc4oc3=O)cc2cn1` [Compound 590, 7-(4-methylpiperazin-1-yl)-3-(3-methylpyrrolo[1,2-a]pyrazin-7-yl)-2H-chromen-2-one] showed a melting point of 212 to 214 °C. In data set [1], the EC1.5x (concentration giving 1.5-fold Smn protein increase) was < 300 nM and the “maximum fold (Fold) increase” value is on record as “***** (fold increase >1.65)”. The EC (1.5-fold) in data set [2] (setting [3]) is < 0.1 µM.

Take `O=c1oc2cc(N3CCCNCC3)cc(F)c2cc1-c1cn2cccnc2n1` [Compound 336, 7-(1,4-diazepan-1-yl)-5-fluoro-3-(imidazo[1,2-a]pyrimidin-2-yl)-2H-chromen-2-one]: the melting point was 305 to 307 °C. In addition, the “maximum fold (Fold) increase” value in data set [1] is “* (maximum fold increase of ≤1.2)”. Moreover, in data set [2] (setting [3]), the EC (1.5-fold) lay in the range of 0.3 to 1 µM.

Compound `CCOc1ncccc1-c1cc2ccc(N3CCNCC3)cc2oc1=O` [Compound 256, 3-(2-ethoxypyridin-3-yl)-7-(piperazin-1-yl)-2H-chromen-2-one] showed a melting point of 186 to 188 °C. In addition, the “maximum fold (Fold) increase” value in data set [1] is “* (maximum fold increase of ≤1.2)”. In addition, in data set [2] (setting [3]), the EC (1.5-fold) was in the range of 3 to 30 µM.

The compound `Cc1c(-c2cn3cc(Cl)ccc3n2)c(=O)oc2cc(N3CCNCC3)ccc12` [Cpd 112, 3-(6-chloroimidazo[1,2-a]pyridin-2-yl)-4-methyl-7-(piperazin-1-yl)-2H-chromen-2-one] yielded a melting point of 224 to 227 °C. The “maximum fold (Fold) increase” value in data set [1] is “* (maximum fold increase of ≤1.2)”. For the same compound, the EC (1.5-fold) in data set [2] (setting [3]) lay within 3 to 30 µM.

Turning to `Cc1cc(C)c2nc(-c3cc4ccc(N5CCCN(C)CC5)cc4oc3=O)cn2c1` [Compound 389, 3-(6,8-dimethylimidazo[1,2-a]pyridin-2-yl)-7-(4-methyl-1,4-diazepan-1-yl)-2H-chromen-2-one], the melting point was in the range of 164 to 169 °C. In data set [1], the “maximum fold (Fold) increase” value was “*** (fold increase between >1.35 and ≤1.5)”. In addition, in data set [2] (setting [3]), the EC (1.5-fold) lay in the range of 0.3 to 1 µM.

The compound `CCc1cn2cc(-c3cc4ccc(N5CCCNCC5)cc4oc3=O)nc2s1` [Compound 430, 7-(1,4-diazepan-1-yl)-3-(2-ethylimidazo[2,1-b][1,3]thiazol-6-yl)-2H-chromen-2-one] yielded a melting point of 185 to 189 °C. Moreover, in data set [1], the “maximum fold (Fold) increase” value was “* (maximum fold increase of ≤1.2)”. The EC (1.5-fold) in data set [2] (setting [3]) is 1 to 3 µM.

A word on the melting point: it is the temperature of the solid-liquid transition.
